Experiments:
[1] = system: reconstructed human epidermis (RhE) model (SkinEthic-RHE); assay: Skin irritation test, reconstructed human epidermis model, MTT cell viability; format: cell-based
Description: A skin irritation test was performed in accordance with OECD Test Guidelines (No. 439), and SKINETHIC SKIN IRRITATION TEST, which is a TEST METHOD FOR THE PREDICTION OF ACUTE SKIN IRRITATION OF CHEMICALS and is a protocol published by the European Centre for the Validation of Alternative Methods (ECVAM). […] The cell viability of the RhE model was measured by an MTT method. In the MTT method, the cell viability is measured by quantitatively determining blue formazan utilizing a property that MTT (3-(4,5-dimethylthiazol-2-yl)-2,5-diphenyltetrazolium bromide, thiazolyl blue), which is a vital staining dye, is reduced to blue formazan by enzymatic reaction of viable cells. […]
After exposing the test sample for 42 minutes, the test sample was immediately removed from the epidermis model by a washing operation and cultured in fresh growth medium for an additional 42 hours. […] Thereafter, the epidermis model was immersed in isopropanol for 2 hours to extract blue formazan in the epidermis model, and the absorbance at 570 nm of the extraction liquid was measured with a microplate reader. The same treatment was performed on the epidermis model exposed to the negative control and the positive control to measure the absorbance. […]

[2] = system: Normal human epidermal keratinocytes; assay: Action of activating epidermal cells (MTT reduction); format: cell-based; settings: for Index (%) Mean ± S.D.: 48 h, untreated cells = 100
Description: Normal human epidermal keratinocytes were seeded on 96-well plates at the density of 5.0×10^3 cells/well using a HuMedia KG2 medium (KG2). 24 hours after seeding, the above-mentioned medium was replaced with a HuMedia KB2 medium (KB2) comprising the test sample. AOH and AHX (2-azahypoxanthine) were used as test samples, KG2 as a positive control (P. C.) for the cell activating action was treated instead of the test sample, and cells which were not treated with the samples were used as a negative control. After culturing for 48 hours, the above-mentioned medium was replaced with KB2 comprising 0.2 mg/mL of MTT to perform culturing for 1 hour. After removing the medium, the absorbance at 550 nm and 650 nm of the cell lysate in which 2-propanol was added to lyse the cells was measured. The amount of MTT reduced to blue formazan was obtained by subtracting the absorbance at 650 nm, which was derived from the cell turbidity, from the absorbance at 550 nm. The action of activating epidermal keratinocytes was shown as Index (%), which is a percentage of the absorbance of the cells, which was treated with the test samples, to the absorbance of the cells, which was not treated with the samples (negative control), with the amount of MTT reduced as an index.

[3] = Test of long-term continuous use (double blind, half face): water content of keratin and TEWL; format: in vivo, human; settings: conclusion from 8-week use of toner with 0.1% by weight AOH
Description: A test of long-term continuous use (double blind test) was performed using a toner (toner B) comprising 0.1% by weight of AOH of Example 4 and a placebo toner (toner A) having the same composition as that of the toner of Example 4 except that AOH was not comprised to perform evaluation of the water content of keratin and the transepidermal water loss (TEWL). 22 test subjects (females, average age 48.4±4.68 years old) were asked to apply the toner A on the half face and the toner B on the other half face after washing their faces twice in the morning and evening, and this was continued for 8 weeks. The water content of keratin and the TEWL were measured at the start of the test, after 4 weeks, and after 8 weeks. The water content of stratum corneum and the TEWL on the left and right cheek portions of the test subjects were measured using each of SKICON-200EX (Yayoi Co., Ltd.) and Cyclone Moisture Evaporator AS-CT1 (ASCH Japan Co., Ltd.). Analysis of test results was performed on 20 subjects as effective test subjects excluding 2 test subjects whose left-right difference in the water content of keratin at the start of the test was 150 μS or more.

[4] = Mutagenicity test (Ames test) (OECD TG471); format: cell-based
[5] = In vitro phototoxicity test (OECD TG432); format: cell-based
[6] = Human patch test; settings: in vivo

In the case of `O=c1[nH]c2nn[nH]c(=O)c2[nH]1` [AOH, 3H-imidazo[4,5-d][1,2,3]triazine-4,6(5H,7H)-dione], the “cell viability of the skin model” value ([1]; 42 min exposure, 42 h post-culture, MTT, PBS (−) negative control as 100%) is reported as 100%, the skin irritation determination ([1]; RhE model, OECD TG 439) is reported as “non-irritating” and the “Index (%) Mean ± S.D.” value ([2]; 3.9 μg/mL) is reported as 105.7 ± 4.5%. The “Index (%) Mean ± S.D.” value ([2]; 7.8 μg/mL) was 108.4 ± 4%, the “Index (%) Mean ± S.D.” value ([2]; 15.6 μg/mL) was 108.7 ± 5.6% and the “Index (%) Mean ± S.D.” value ([2]; 31.3 μg/mL) was 109.7 ± 5.2%. The “Index (%) Mean ± S.D.” value ([2]; 62.5 μg/mL) was 102.3 ± 2.8%, the “Index (%) Mean ± S.D.” value ([2]; 125 μg/mL) was 98.6 ± 0.7% and the “Index (%) Mean ± S.D.” value ([2]; 250 μg/mL) was 94.2 ± 1.7%. The “Index (%) Mean ± S.D.” value ([2]; 500 μg/mL) was 91.9 ± 0.9%, the cytotoxicity compared ([2]; AOH versus AHX) was “lower cytotoxicity than AHX” and the “change in Index” value ([2]; concentrations of 7.8 to 31.3 μg/mL) was “significant increase in Index”. The “proliferative effect / cell activating action” value ([2]; epidermal keratinocytes) was “has the cell activating action”, the “moisturizing effect on the skin” value [3] was “has the moisturizing effect on the skin” and the “toxicity in mutagenicity test (Ames test)” value [4] was “toxicity was not recognized”. The “toxicity in in vitro phototoxicity test” value [5] was “toxicity was not recognized” and the “toxicity in human patch test” value [6] was “toxicity was not recognized”.

— patent US12527801B2, “Cell activator of animal cell” (Vitamin C60 BioResearch Corporation, priority 2019, dated 2026)
